Experimental data as given in US20100112012A1, “MODULATION OF IMMUNE RESPONSES” (CLEVELAND CLINIC FOUNDATION, priority 2005, published 2010).
“Also recorded” adds a separate entry of the source. Where two headings read alike, the source gives them in different places.

Experiments:
ACHN cells = assay: Experimental chemotherapy of tumor xenografts; type: in vivo, nude mice; conditions: ACHN xenograft nude mice; QC 50 mg/kg; 5-fluorouracil 35 mg/kg
Protocol: NIH Swiss athymic nude, male mice, 5-6 weeks old, were purchased from Harlan. 5×10^6 tumor cells were inoculated into the flanks of mice in 100 μL of PBS. When tumors reached 5 mm in diameter, intraperitoneal injections of drugs were started in 100 μL of a solution of 50% DMSO in PBS (except for quinacrine, which was dissolved in PBS). As vehicle, 50% DMSO solution in PBS was used. Tumor size was measured in three dimensions every other day.

p53 [1] = assay: Screening for p53-activating compounds, p53-responsive reporter in RCC45ConALacZ cells; type: cell-based, human
Protocol: (§1) Transient transfections. 2×10^5 cells were plated into 6-well plates and, after overnight incubation, transfected with Lipofectamin Plus reagent (Gibco BRL) with 0.5 μg of reporter plasmids (p21-ConALuc or pNF-κBLuc) in combination with different concentrations of plasmids expressing p53, Arf, Ss-IκB, or siHDM2. Corresponding empty vectors were added in all transfections up to 2 μg of total DNA. Normalization of transfection efficiency was done by adding 0.2 μg of pCMV-LacZ plasmid. Luciferase activity and β-galactosidase activity were measured in lysates prepared 48 hours after transfection with Cell Lysis Buffer (Promega) by the luciferase assay system (Promega) or β-galactosidase enzyme system (Promega). Luminometric and colorimetric reactions were read on the Wallack 1420 plate reader (Perkin Elmer). Stable transduction of reporters. 2×10^4 cells with integrated reporter were plated in 96-well plates. After overnight incubation, chemicals or media from lentivirus-producing cells were added. At different times, cell lysates were prepared using Reporter Lysis Buffer (Promega). Luciferase or β-galactosidase activity and protein concentration were measured in aliquots of cell lysates using standard kits (Promega, Luciferase and β-galactosidase assay systems, Biorad Protein Assay Kit).
The DiverSet library of 34,000 chemical compounds and focused libraries of structural analogues of selected hits were provided by Chembridge, Calif. Cell lines with p53- or NF-κB-responsive luciferase or β-galactosidase reporters were described previously (5, 7). For screening chemicals, 2×10^4 RCC45ConALacZ cells (RCC45-based p53 reporter cells) were plated per well of 96-well plates in 200 μL of phenol-red-free RPMI medium with standard additions. After overnight incubation, the compounds were added to final concentrations of 5-15 μM (0.2 μL of compound in DMSO per well). […] After 24 h, lysis buffer with ortho-nitrophenyl-β-D-galactopyranoside (ONPG) was added and β-galactosidase activity was estimated colorimetrically by a multiwell plate reader.

p53 [2] = assay: p53-responsive reporter activity in tumor cells (HT1080 and others); type: cell-based, human; conditions: for time of peak (maximum) p53 reporter activity: HT1080 cells
Protocol: as §1

p53 [3] = assay: p53, p21 and Mdm2 levels in treated cells (Western analysis); type: cell-based, human
Protocol: (§2) Cells were lysed in RIPA buffer (25 mM Tris HCl, pH 7.2, 125 mM NaCl, 1% NP40, 1% sodium deoxycholate, 1 mM EDTA) containing 1 mM PMSF (Sigma), 10 ug/ml of aprotinin (Sigma) and 10 ug/ml of leupeptin (Sigma). Protein concentrations were determined with the BioRad Dc protein assay kit. Equal protein amounts were run on gradient 4-20% precast gels (Novex) and blotted onto PVDF membranes (Amersham). The following antibodies were used: anti-p53—monoclonal mouse DO1 (Santa-Cruz), anti-p21—monoclonal mouse F-5 (Santa-Cruz), anti-mdm2—monoclonal mouse SMP14 (Santa-Cruz), anti-p65—(C20, Santa Cruz), anti-phospho-p65—(ser536, Cell Signaling), anti-IκBa—(C21, Santa Cruz), anti-p50—(NLS, Santa Cruz), anti-IKK1 (Cell Signaling), anti-γH2X (Cell Signaling), anti-actin (Santa Cruz). p53 phosphorylation status was analyzed using the phospho-p53 sampler kit from Cell Signaling according to the manufacturer's recommendations. HRP-conjugated secondary antibodies were purchased from Santa Cruz. Quantitation of the data was performed using Quantity One software from BioRad.

HT1080 cells = assay: Cell cycle analysis; type: cell-based, human; conditions: p53-dependent
Protocol: At the end of the incubation period, cells were collected, fixed and stained with propidium iodide as previously described (3a). DNA content was measured using FACScalibur (Becton Dickinson) and analyzed using CellQuest software.

RCC45 and RCC54 cells = assay: Growth arrest or apoptosis of RCC cells treated with 9AA; type: cell-based, human
RCC cell lines = assay: Growth inhibition assay, RCC, non-RCC and normal kidney (NKE) cells; type: cell-based, human
Protocol: Growth inhibition assay. […] Cell survival was estimated after an additional 48 hours, using standard Methylene Blue staining followed by extraction and colorimetrical detection of the dye.

p53 [4] = assay: Phosphorylation status of p53 (Western analysis); type: cell-based, human; conditions: RCC45 cells, 9AA 5 μM, 16 h
Protocol: as §2

histone H2A.X = assay: Immunofluorescent detection of phosphorylated histone H2A.X; type: cell-based, human; conditions: HT1080 cells, 10 μM
Description: (§3) All washings were done with blocking solution.

topoisomerase II = assay: DNA topoisomerase II activity assay; type: cell-based, human; conditions: direct in vitro assay, 1 h
proteasomal activity = assay: Proteasome inhibitor assay; type: biochemical; conditions: direct in vitro assay (not shown)
Description: The kit for assaying proteasomal activity was purchased from Boston Biochem, Inc. and used according to the manufacturer's recommendations.

IκBα = IκBα level (Western analysis); type: cell-based, human
Protocol: as §2

NF-κB [5] = assay: NF-κB-dependent reporter in H1299-NF-kBLuc cells; type: cell-based, human; conditions: for basal activity of NF-κB: H1299-NF-κBLuc cells, tested side-by-side with 9AA
Protocol: as §1

p53 [6] = assay: Transient transfection of sr-IκB with p53-responsive reporter; type: cell-based, human; conditions: ACHN cells, 9AA 10 μM, 24 h
Protocol: as §1

NF-κB [7] = assay: Electromobility shift assay and immunofluorescent staining of nuclear NF-κB; type: cell-based, human
Description: as §3

p65 subunit of NF-κB = assay: Phosphorylation of serine 536 of p65 (Western analysis); type: cell-based, human; conditions: basally and after TNF-dependent induction; 9AA 10 μM
Protocol: as §2

p53-deficient cells [8] = system: p53-deficient cells
Protocol: (§4) All cells were maintained in RPMI 1640 medium, supplemented with 10% FBS, 1 mM sodium pyruvate, 10 mM Hepes buffer, 55 nM β-mercaptoethanol and antibiotics. […] Cells with inhibited p53 expression were generated by retroviral transduction of pBabeH1-sip53 or pBabeH1-siGFP vectors for siRNA expression with following selection on puromycin.
(§5) Clonogenic survival. 5×10^3 cells were plated in 6-well plates and treated with different concentrations of drugs for 24 hours. Then fresh drug-free medium was added and the numbers of colonies were estimated 7-14 days later. Growth inhibition assay. […] Cell survival was estimated after an additional 48 hours, using standard Methylene Blue staining followed by extraction and colorimetrical detection of the dye.

p53-deficient cells [9] = assay: Survival of isogenic pairs of tumor cells differing in p53 expression; conditions: isogenic pairs of cell lines, shRNA-mediated p53 knockdown
Protocol: as §4, §5

p53 [10] = assay: p53 reporter in organ cultures of human RCC tumor samples; type: cell-based; conditions: organ cultures of adjacent normal kidney, 12 hours
Protocol: FIG. 11. QC can activate p53 transactivation in organ cultures of human RCC tumor samples. Fresh surgically removed samples of tumor and adjacent normal kidney were cut into small pieces and put into media containing ConALacZ virus (5×10^7 TU/ml) with […] of polybrene for 4 hours. 24 hours after infection, tissue pieces (at least three per treatment) were incubated with media containing quinacrine or doxorubicin for 12 hours. Then the tissues were fixed for 30 min in PBS containing 0.5% glutaraldehyde and 1 mM MgCl2. Pieces of tumor were stained in PBS solution containing X-gal (1 mM MgCl2, 3.3 mM K4Fe(CN)6, 3.3 mM K3Fe(CN)6, 0.02% NP40, 0.2% X-gal) overnight at 37° C. Stained specimens were analyzed microscopically by squeezing pieces of tumor and normal tissues between two glass slides.

[11] = PLA2 inhibitors, data not shown

O=c1[nH]cc(F)c(=O)[nH]1 [5-fluorouracil]
weight loss (ACHN cells): up to 20%

Nc1c2ccccc2nc2ccccc12 [9AA, 9-aminoacridine]
activation of the p53-dependent reporter (p53 transactivation) in RCC (p53 [1]): structure primarily responsible for induction of the reporter | time of peak (maximum) p53 reporter activity (p53 [2]): 24 h | activation of p53-mediated transcription compared with DNA-damaging agents (p53 [2]; tumor cells with wild-type p53, 9AA 1-10 μM, doxorubicin 0.2-2 μM, 24 h): more strongly than doxorubicin in the majority of tumor cells tested; also recorded: more strongly than DNA-damaging agents | levels of the endogenous proteins p21 and Mdm2 (p53 [3]; cells treated for 16 h): dose-dependent increase | p53 mRNA expression (p53 [3]; data not shown): No increase | stabilization and accumulation of p53 protein (p53 [3]; treated cells (HT1080, 5 μM 9AA, 16 hours in FIG. 6)): induced stabilization and accumulation of p53 protein; also recorded: leads to p53 stabilization | effect on the cell cycle (HT1080 cells; 3 μM): growth arrest | effect on the cell cycle (HT1080 cells; 20 μM): apoptosis | cellular effect in RCC45 and RCC54 cells (RCC45 and RCC54 cells; 2 μM): growth arrest | cellular effect in RCC45 and RCC54 cells (RCC45 and RCC54 cells; 10 μM): apoptosis | IC50 in RCC cells compared with non-RCC cells (RCC cell lines; 6 RCC and 6 non-RCC cell lines, growth inhibition assay): in the same range as for non-RCC cells | sensitivity of RCC-derived cell lines versus normal kidney epithelial (NKE) cells (RCC cell lines; 72 h after treatment): more toxic for RCC than for NKE cells; also recorded: more sensitive to 9AA than normal kidney epithelial cells | phosphorylation of p53 (p53 [4]): did not induce the phosphorylation of p53 | phosphorylation of p53 serine 392 (p53 [4]): increasingly phosphorylated | phosphorylation of histone H2A.X (histone H2A.X): Neither 9AA nor QC induced phosphorylation of histone H2A.X | poisoning of topoisomerase II (topoisomerase II): no such activity | inhibition of proteasomal activity (proteasomal activity): ruled out | level of IκBα (IκBα; PC-3 cells 10 μM 1-8 h, MCF7 cells 10 μM): gradual decrease or even complete disappearance of IκBα | TNF-stimulated induction of IκBα (IκBα; TNF 10 ng/ml, 9AA 10 μM): blocked; also recorded: inhibits reconstitution of the level of IκB protein | basal and TNF-induced NF-κB reporter activities (NF-κB [5]; H1299-NF-kB-Luc cells, TNF 10 ng/ml): strong dose-dependent suppression; also recorded: capable of inhibiting both basal and TNF-induced activities of NF-κB | inhibition of NF-κB transactivation induced by trichostatin A (NF-κB [5]; H1299 cells, 100 nM TSA, 9AA 20 μM, 4 or 16 hours): could no longer be blocked by 9AA; also recorded: does not inhibit | activation of a p53-dependent reporter in the presence of sr-IκB (p53 [6]): could not further activate | binding of NF-κB to DNA (NF-κB [7]; H1299-NF-κBLuc cells, with TNF 10 ng/ml, 6 h, gel-shift): significant increase in the binding of NF-κB to DNA | nuclear accumulation and retention of NF-κB (p65) complexes (NF-κB [7]; TNF 10 ng/ml, 10 μM): greatly prolonged the time of its presence in nuclei; also recorded: causes nuclear accumulation of inactive NF-κB; also recorded: causes accumulation of p65/p50 and p50/p50 NF-κB complexes in the nuclei | composition of NF-κB complexes (NF-κB [7]; gel-shift assays with antibodies, H1299 cells): did not significantly change the composition of NF-κB complexes | proportion of phosphorylated serine 536 in the p65 subunit of NF-κB (p65 subunit of NF-κB): reduce the proportion of phosphorylated serine 536; also recorded: decreases the phosphorylation of p65 in response to TNF | toxicity to p53-deficient cells (p53 dependence of cytotoxicity) (p53-deficient cells [8]): less toxic to p53-deficient cells

Cc1ccc(S(=O)(=O)/C=C/C#N)cc1 [Bay11-7082]
activation of p53 by known NF-κB inhibitors (p53 [2]; data not shown): capable of activating p53 | basal activity of NF-κB (NF-κB [5]): did not reduce the basal activity

CC[C@@]1(O)C(=O)OCc2c1cc1n(c2=O)Cc2cc3ccccc3nc2-1 [camptothecin]
toxicity to p53-deficient cells (p53 dependence of cytotoxicity) (p53-deficient cells [9]): equally or even more toxic than 9AA to p53-deficient cells

COc1cc(CNC(=O)CCCC/C=C/C(C)C)ccc1O [capsaicin]
activation of p53 by known NF-κB inhibitors (p53 [2]; data not shown): capable of activating p53 | basal activity of NF-κB (NF-κB [5]): did not reduce the basal activity

COc1cccc2c1C(=O)c1c(O)c3c(c(O)c1C2=O)C[C@@](O)(C(=O)CO)C[C@@H]3O[C@H]1C[C@H](N)[C@H](O)[C@H](C)O1 [doxorubicin]
activation of the p53-dependent reporter (p53 transactivation) in RCC (p53 [1]): weakly activating | time of peak (maximum) p53 reporter activity (p53 [2]): 8 to 12 h | p53-responsive reporter induction in normal kidney samples (p53 [10]): no reporter induction | toxicity to p53-deficient cells (p53 dependence of cytotoxicity) (p53-deficient cells [9]): equally or even more toxic than 9AA to p53-deficient cells

O=C(O)c1cc(/N=N/c2ccc(S(=O)(=O)Nc3ccccn3)cc2)ccc1O [sulfasalazine]
activation of p53 by known NF-κB inhibitors (p53 [2]; data not shown): capable of activating p53 | basal activity of NF-κB (NF-κB [5]): did not reduce the basal activity

CC(=O)O[C@H]1C(=O)[C@@]2(C)[C@H]([C@H](OC(=O)c3ccccc3)[C@]3(O)C[C@H](OC(=O)[C@H](O)[C@@H](NC(=O)c4ccccc4)c4ccccc4)C(C)=C1C3(C)C)[C@]1(OC(C)=O)CO[C@@H]1C[C@@H]2O [taxol]
toxicity to p53-deficient cells (p53 dependence of cytotoxicity) (p53-deficient cells [9]): equally or even more toxic than 9AA to p53-deficient cells

CCCCCCCCCCCCCCCCSC[C@H](COP(=O)(O)OCC[N+](C)(C)C)NC(=O)CCCCCCCCCCCCCCC [thioetheramide-PC]
induction of p53 (p53 [2]; [11]): could neither induce p53 | inhibition of NF-κB (NF-κB [5]; [11]): nor inhibit NF-κB

CC(/C=C/C(=O)NO)=C\[C@@H](C)C(=O)c1ccc(N(C)C)cc1 [trichostatin A]
NF-κB-dependent transcription (NF-κB [5]; H1299 cells, 100 nM TSA, 4 or 16 hours): strong activation of NF-κB-dependent transcription

CC[C@]1(O)C[C@@H]2CN(CCc3c([nH]c4ccccc34)[C@@](C(=O)OC)(c3cc4c(cc3OC)N(C)[C@H]3[C@@](O)(C(=O)OC)[C@H](OC(C)=O)[C@]5(CC)C=CCN6CC[C@]43[C@@H]65)C2)C1 [vinblastine]
toxicity to p53-deficient cells (p53 dependence of cytotoxicity) (p53-deficient cells [9]): equally or even more toxic than 9AA to p53-deficient cells
